The nature of data set [1]: Single ascending dose (SAD) pharmacokinetics, Compound I in plasma. In kind it is in vivo, human. From the text:
The SAD part consists of 5 groups of 8 healthy young male and female participants, gender balanced to the extent possible, receiving a single oral dose in Groups 1 to 4 or 2 doses in Group 5 of Compound I or placebo (randomized 3:1, active vs placebo, respectively). All participants in the SAD portion of the study must be fasting prior to receiving Compound I. All groups will be evaluated based on pharmacokinetic (PK), safety and tolerability prior to escalation to the next highest group or starting the MAD portion of the study.
For Groups 1 to 4, the study drug will be administered with the participant in the upright position. Study drug will be administered to participants between 08:00 and 9:00 hours in the morning. Before the morning dose, participants will be fasted overnight for at least 10 hours following a light supper on the evening before. Within a period, dosing should be at the same time each day 15 minutes. The study drug will be swallowed together with 240 mL tap water. The study drug should not be chewed. Fasting will continue for a period of 4 hours after drug administration. During fasting, no fluids are allowed except water; however, water is not allowed from 2 hours pre-dose until 1 hour post-dose. When not fasting, non-caffeinated fluids are allowed ad libitum. […]

In data set [2] the target is T1, A2aR (Homo sapiens, UniProt P29274).
T1 construct: all subjects responded to 5 μM NECA by increasing the levels of pCREB in their blood CD8+ T cells; endogenous in cells; host or cells: blood CD8+ T cells of trial subjects (ex vivo)
T1 sequence (P29274 whole entry): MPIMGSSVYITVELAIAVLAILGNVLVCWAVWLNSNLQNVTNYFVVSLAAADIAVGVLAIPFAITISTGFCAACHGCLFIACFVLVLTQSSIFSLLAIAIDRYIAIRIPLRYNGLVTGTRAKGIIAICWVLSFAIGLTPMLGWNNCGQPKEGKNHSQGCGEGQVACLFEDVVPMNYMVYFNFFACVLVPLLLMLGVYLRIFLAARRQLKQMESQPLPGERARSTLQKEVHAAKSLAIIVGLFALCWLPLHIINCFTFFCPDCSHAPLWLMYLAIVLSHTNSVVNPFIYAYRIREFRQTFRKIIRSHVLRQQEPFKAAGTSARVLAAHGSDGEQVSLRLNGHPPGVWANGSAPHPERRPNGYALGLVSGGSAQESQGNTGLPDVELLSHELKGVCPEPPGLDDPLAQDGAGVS
As to the kind of experiment: pCREB (marker for A2R inhibition) by flow cytometry in blood CD8+ T cells stimulated ex vivo with 5 μM NECA. From the text: The assessment of pCREB (a marker for A2R inhibition) by flow cytometry will be conducted during the study.
On the technique in general: In flow cytometry, cells or beads pass a laser one at a time.

The nature of data set [3]: Safety and tolerability in healthy volunteers. It is filed as in vivo, human. The following applies: doses of up to 150 mg. From the text:
Safety and tolerability assessments will consist of adverse events (AEs), clinical laboratory, vital signs, 12-lead ECG, telemetry, physical examination, Bond and Lader Visual Analog Scale (VAS) of Mood and Alertness, and Digit Symbol Substitution Test (DSST). Assessments will be performed in accordance with the schedules of assessments.

This is an account of results in patent US11478479B2, “Dosing with an azolopyrimidine compound” (ARCUS BIOSCIENCES, INC., priority 2018, dated 2022).

One may read the half-life as how long it takes for the measured level to halve. The low end stands for rapid decline, the high end for slow decline. Usually inhibition stands for the relative decrease from the control value, in per cent. Take `Cc1c(C#N)cccc1-c1cc(-c2cn(Cc3cccc(C(C)(C)O)n3)nn2)nc(N)n1` [Compound I, 3-(2-amino-6-(1-((6-(2-hydroxypropan-2-yl)pyridin-2-yl)methyl)-1H-1,2,3-triazol-4-yl)pyrimidin-4-yl)-2-methylbenzonitrile]: in data set [1] (both sexes, human, plasma, healthy volunteers, following a single oral dose), the half-life is approximately 20 h. Besides, the “plasma levels of Compound I with increased doses” value in data set [1] (healthy volunteers, 10, 25, 75 and 150 mg, FIG. 1) is “dose proportional increases”. Besides, the inhibition at 75 mg in data set [2] (75 mg once daily, in the presence of 5 μM NECA, projected from single-dose PK profiles, FIG. 2, read-out: expected inhibition of A2R at steady-state plasma levels) came out at 90%. Besides, in data set [2] (150 mg, 24 hours after dosing, 5 μM NECA), the “inhibition of NECA-mediated activation of A2aR” value is reported as “approximately 90%”. The “pCREB response relative to the response seen pre-dose” value in data set [2] (150 mg, 24 hours after dosing, blood CD8+ T cells, 5 μM NECA, FIG. 3) is “approximately 10%”. Further, in data set [2] (150 mg, two hours after dosing, blood CD8+ T cells, 5 μM NECA, FIG. 3), the “pCREB activation signal in response to NECA” value is reported as “no detectable increase in pCREB levels”. In addition, the safety issues result in data set [3] is reported as “no safety issues have been identified”.
